This note sets out measurements from patent US10626112B2, “Heterocyclic sulfonamide derivative and medicine comprising same” (EA PHARMA CO., LTD., priority 2014, dated 2020).

Chain of human TRPA1 (O75762 whole entry): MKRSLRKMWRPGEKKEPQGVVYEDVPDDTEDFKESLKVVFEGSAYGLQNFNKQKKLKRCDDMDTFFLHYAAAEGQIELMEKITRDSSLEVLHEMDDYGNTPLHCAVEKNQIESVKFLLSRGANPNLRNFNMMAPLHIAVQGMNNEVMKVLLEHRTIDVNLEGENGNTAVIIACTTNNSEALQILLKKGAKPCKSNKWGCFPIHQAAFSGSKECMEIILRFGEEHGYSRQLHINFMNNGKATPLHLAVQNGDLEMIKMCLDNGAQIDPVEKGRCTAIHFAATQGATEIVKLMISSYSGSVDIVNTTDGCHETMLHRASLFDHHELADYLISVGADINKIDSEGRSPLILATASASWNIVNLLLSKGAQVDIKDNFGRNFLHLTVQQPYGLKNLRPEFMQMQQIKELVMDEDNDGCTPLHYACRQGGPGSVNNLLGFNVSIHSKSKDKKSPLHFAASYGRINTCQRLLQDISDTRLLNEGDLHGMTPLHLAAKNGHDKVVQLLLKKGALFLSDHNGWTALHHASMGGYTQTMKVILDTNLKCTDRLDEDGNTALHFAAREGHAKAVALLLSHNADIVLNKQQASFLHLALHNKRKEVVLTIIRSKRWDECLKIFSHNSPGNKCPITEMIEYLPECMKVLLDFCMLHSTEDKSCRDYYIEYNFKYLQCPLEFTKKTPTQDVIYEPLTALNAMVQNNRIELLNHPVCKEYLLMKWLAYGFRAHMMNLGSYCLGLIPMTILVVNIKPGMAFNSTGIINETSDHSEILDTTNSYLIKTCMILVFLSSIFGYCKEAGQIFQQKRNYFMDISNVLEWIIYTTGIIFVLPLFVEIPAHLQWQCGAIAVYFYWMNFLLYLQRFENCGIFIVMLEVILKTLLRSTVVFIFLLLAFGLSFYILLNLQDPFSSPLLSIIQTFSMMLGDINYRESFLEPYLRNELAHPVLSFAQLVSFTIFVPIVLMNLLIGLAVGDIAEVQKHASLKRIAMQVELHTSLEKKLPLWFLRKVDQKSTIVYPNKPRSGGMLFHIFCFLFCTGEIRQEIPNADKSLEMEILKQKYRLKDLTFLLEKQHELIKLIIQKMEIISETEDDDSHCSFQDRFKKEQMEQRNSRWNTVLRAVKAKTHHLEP

In the assay the target is human TRPA1 (Homo sapiens (Human), UniProt O75762). Briefly: Measurement of TRPA1 antagonist activity (1): intracellular calcium increase. The format is cell-based. The following applies: 293T cells transfected with human TRPA1 expression plasmid; allylisothiocyanate 20 μM stimulation; intracellular calcium fluorescence; read-out: hTRPA1 IC50. Put shortly:
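Calcium-flux readout of TRPA1 block: compound given 10 min before 20 μM (final) allylisothiocyanate, fluorescence tracked 5 min. Cells were 293T transiently expressing human TRPA1, dye-loaded 1 hr in HBSS, 20 mM HEPES, pH 7.2. Inhibition scaled between agonist-only and buffer-only responses; IC50 by sigmoid fitting.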
With `O=C(NCc1ccc(O)c(-c2ccc(C(F)(F)F)cn2)c1)[C@@H]1CCCN1S(=O)(=O)c1cc2ccccc2o1` [Example 193, (2S)-1-(benzofuran-2-ylsulfonyl)-N-[[4-hydroxy-3-[5-(trifluoromethyl)-2-pyridyl]phenyl]methyl]pyrrolidine-2-carboxamide], the IC50 is 2.2 nM.
Regarding `O=C(NCc1ccc(F)c(OC(F)(F)F)c1)[C@@H]1CCCN1S(=O)(=O)c1cc2cc(F)ccc2o1` [Example 70, (2S)-1-(5-fluorobenzofuran-2-yl)sulfonyl-N-[[4-fluoro-3-(trifluoromethoxy)phenyl]methyl]-pyrrolidine-2-carboxamide], the IC50 was found to be 11 nM.
Turning to `O=C(NCc1cccc(C(F)(F)F)c1)[C@@H]1CCCN1S(=O)(=O)c1cc2ccccc2o1` [Example 61, (2S)-1-(benzofuran-2-ylsulfonyl)-N-[[3-(trifluoromethyl)phenyl]methyl]-pyrrolidine-2-carboxamide], the IC50 was 55 nM.
For the compound `O=C(NCc1cccc(OCc2ccnc(C(F)(F)F)c2)c1)[C@@H]1CCCN1S(=O)(=O)c1cc2ccccc2o1` [Example 7], the IC50 amounted to 5.4 nM.
To `O=C(NCc1cc(OC(F)(F)F)ccc1F)[C@@H]1CCCN1S(=O)(=O)c1cc2cc(F)ccc2o1` [Example 71, (2S)-1-(5-fluorobenzofuran-2-yl)sulfonyl-N-[[2-fluoro-5-(trifluoromethoxy)phenyl]methyl]-pyrrolidine-2-carboxamide] belongs 3.2 nM; to `CC[C@H](NS(=O)(=O)c1cc2cc(F)ccc2o1)C(=O)NCc1cc(-c2ccc(C(F)(F)F)cn2)ccn1` [Example 335, (2S)-2-[(5-fluorobenzofuran-2-yl)sulfonylamino]-N-[[4-[5-(trifluoromethyl)-2-pyridyl]-2-pyridyl]methyl]butaneamide], 54 nM.
The same measure for `C[C@H](NS(=O)(=O)c1cc2cc(F)ccc2o1)C(=O)NCc1cnnc(-c2ccc(C(F)(F)F)cc2)c1` [Example 249, (2S)-2-[(5-fluorobenzofuran-2-yl)sulfonylamino]-N-[[6-[4-(trifluoromethyl)phenyl]-pyridazin-4-yl]methyl]propanamide]: 170 nM; for `C[C@H](NS(=O)(=O)c1cc2ccccc2o1)C(=O)NCc1cc(C(F)(F)F)ccc1Cl` [Example 72, (2S)-2-(benzofuran-2-ylsulfonylamino)-N-[[2-chloro-5-(trifluoromethyl)phenyl]methyl]-propanamide]: 350 nM; for `O=C(NCc1cc(-c2ccc(C(F)(F)F)cn2)ccn1)[C@@H]1CCCCN1S(=O)(=O)c1cc2cc(F)ccc2o1` [Example 261, (2S)-1-(5-fluorobenzofuran-2-yl)sulfonyl-N-[[4-[5-(trifluoromethyl)-2-pyridyl]-2-pyridyl]methyl]piperidine-2-carboxamide]: 37 nM.
To `O=C(NCc1cc(-c2ccc(OC(F)(F)F)cc2)ccn1)[C@@H]1CCCN1S(=O)(=O)c1cc2ccccc2o1` [Example 153, (2S)-1-(benzofuran-2-ylsulfonyl)-N-[[4-[4-(trifluoromethoxy)phenyl]-2-pyridyl]methyl]pyrrolidine-2-carboxamide] belongs 5.6 nM.
As for `O=C(NCc1ccnc(-c2ccccc2O)c1)[C@@H]1CCCN1S(=O)(=O)c1cc2ccccc2o1` [Example 120, (2S)-1-(benzofuran-2-ylsulfonyl)-N-[[2-(2-hydroxyphenyl)-4-pyridyl]methyl]pyrrolidine-2-carboxamide], the IC50 is 180 nM.
To `O=C(NCc1cc(-c2ccc(C(F)(F)F)nc2)ncn1)[C@@H]1CCCN1S(=O)(=O)c1cc2ccccc2o1` [Example 205, (2S)-1-(benzofuran-2-ylsulfonyl)-N-[[6-[6-(trifluoromethyl)-3-pyridyl]pyrimidin-4-yl]methyl]pyrrolidine-2-carboxamide] belongs 4 nM.
The same measure for `O=C(NCc1ccc(Oc2cccc(C(F)(F)F)c2)cc1)[C@@H]1CCCN1S(=O)(=O)c1cc2cc(F)ccc2o1` [Example 51, (2S)-1-(5-fluorobenzofuran-2-yl)sulfonyl-N-[[4-[3-(trifluoromethyl)phenoxy]phenyl]-methyl]pyrrolidine-2-carboxamide]: 19 nM; for `O=C(NCc1cccc(OCc2cccs2)c1)[C@@H]1CCCN1S(=O)(=O)c1cc2ccccc2o1` [Example 5, (2S)-1-(benzofuran-2-ylsulfonyl)-N-[[3-(2-thienylmethoxy)phenyl]methyl]pyrrolidine-2-carboxamide]: 12 nM; for `O=C(NCc1cccc(OCc2ccc(C(F)(F)F)cn2)c1)[C@@H]1CCCN1S(=O)(=O)c1cc2ccccc2o1` [Example 291, (2S)-1-(benzofuran-2-ylsulfonyl)-N-[[3-[[5-(trifluoromethyl)-2-pyridyl]methoxy]phenyl]methyl]pyrrolidine-2-carboxamide]: 28 nM.
In the case of `O=C(NCc1cccc([S+]([O-])Cc2ccccc2)c1)[C@@H]1CCCN1S(=O)(=O)c1cc2ccccc2o1` (stereo partly drawn) [Example 188, (2S)-1-(benzofuran-2-ylsulfonyl)-N-[(3-benzylsulfinylphenyl)methyl]pyrrolidine-2-carboxamide], the IC50 is 890 nM.
The same measure for `O=C(NCc1ccc(OC(F)(F)F)c(F)c1)[C@@H]1CCCN1S(=O)(=O)c1cc2cc(F)ccc2o1` [Example 69, (2S)-1-(5-fluorobenzofuran-2-yl)sulfonyl-N-[[3-fluoro-4-(trifluoromethoxy)phenyl]methyl]-pyrrolidine-2-carboxamide]: 12 nM; for “(2S)-1-(5-fluorobenzofuran-2-yl)sulfonyl-N-[[3-[[4-(trifluoromethyl)phenyl]methoxy]-phenyl]methyl]pyrrolidine-2-carboxamide [Example 41]”: 1.3 nM; for `O=C(NCc1cccc(OCc2cccc(OCCN3CCOCC3)c2)c1)[C@@H]1CCCN1S(=O)(=O)c1cc2cc(F)ccc2o1` [Example 28, (2S)-1-(5-fluorobenzofuran-2-yl)sulfonyl-N-[[3-[[3-(2-morpholinoethoxy)phenyl]-methoxy]phenyl]methyl]-pyrrolidine-2-carboxamide]: 56 nM.
`O=C(NCc1ccnc(-c2cnc(C3CC3)nc2)c1)[C@@H]1CCCN1S(=O)(=O)c1cc2cc(F)ccc2o1` [Example 134, (2S)-N-[[2-(2-cyclopropylpyrimidin-5-yl)-4-pyridyl]methyl]-1-(5-fluorobenzofuran-2-yl)sulfonyl-pyrrolidine-2-carboxamide]: the IC50 came to 42 nM.
The same measure for `O=C(NCc1cccc(S(=O)(=O)c2ccc(C(F)(F)F)cc2)c1)[C@@H]1CCCN1S(=O)(=O)c1cc2ccccc2o1` [Example 322, (2S)-1-(benzofuran-2-ylsulfonyl)-N-[[3-[4-(trifluoromethyl)phenyl]sulfonylphenyl]methyl]pyrrolidine-2-carboxamide]: 310 nM; for `O=C(NCc1cc(-c2ccc(C(F)(F)F)cc2)nc(OCc2ccccc2)n1)[C@@H]1CCCN1S(=O)(=O)c1cc2ccccc2o1` [Example 327, (2S)-1-(benzofuran-2-ylsulfonyl)-N-[[2-benzyloxy-6-[4-(trifluoromethyl)phenyl]pyrimidin-4-yl]methyl]pyrrolidine-2-carboxamide]: 4.3 nM; for `O=C(NCc1ccnc(-c2ccc(C(F)(F)F)cc2)c1)[C@@H]1CCCN1S(=O)(=O)c1cc2cccc(F)c2o1` [Example 219, (2S)-1-(7-fluorobenzofuran-2-yl)sulfonyl-N-[[2-[4-(trifluoromethyl)phenyl]-4-pyridyl]methyl]pyrrolidine-2-carboxamide]: 390 nM.

Usually IC50 stands for the point on the concentration scale where inhibition reaches its midpoint.
